Values of other authors in US7968545B2 (priority 2003, dated 2011).

Legend:
[1] = in vivo
[2] = in vivo; remark: listed apart in the source
[3] = human, in vivo

CSCC[C@@H]1NC(=O)[C@H](CC(C)C)NC(=O)[C@H](CCCNC(=N)N)NC(=O)[C@H](CO)NC(=O)[C@@H]2CSSC[C@@H]3NC(=O)[C@H](CO)NC(=O)CNC(=O)[C@H]([C@@H](C)O)NC(=O)[C@H](CSSC[C@H](N)C(=O)N[C@@H](CCCCN)C(=O)NCC(=O)N[C@@H](CCCCN)C(=O)NCC(=O)N[C@@H](C)C(=O)N[C@@H](CCCCN)C(=O)N2)NC(=O)[C@H](CSSC[C@@H](C(N)=O)NC(=O)[C@H](CCCCN)NC(=O)CNC(=O)[C@H](CO)NC(=O)[C@H](CCCNC(=N)N)NC3=O)NC(=O)[C@H](CC(=O)O)NC(=O)[C@H](Cc2ccc(O)cc2)NC1=O [Ziconotide, ω-conotoxin-MVIIA]
success rate for the treatment of pain [1]: 85%
reduction of infarct size [2]: effective in reducing infarct size

NCC1(CC(=O)O)CCCCC1 [Gabapentin]
share of patients in whom it works [3]: 60%
